Key:
[1] = target: T1, Adrenergic receptor alpha-2 (Homo sapiens) (UniProt P08913+P18825+P18089); assay: Compound was evaluated for alpha adrenoceptor agonistic activity towards alpha-2 adrenergic receptor of isolated guinea pig ileum; assay type: functional, tissue-based; details: Cavia porcellus, target entry is the homologue from another species
[2] = target: Beta-1 adrenergic receptor (Cavia porcellus) (UniProt B0FL73); assay: Intrinsic activity was expressed as the ratio between maximal response elicited by compound and that elicited by full agonist ISO towards beta 1 receptor of isolated guinea pig atria; assay type: functional
Sequence of Beta-1 adrenergic receptor (Cavia porcellus) (B0FL73 1-467): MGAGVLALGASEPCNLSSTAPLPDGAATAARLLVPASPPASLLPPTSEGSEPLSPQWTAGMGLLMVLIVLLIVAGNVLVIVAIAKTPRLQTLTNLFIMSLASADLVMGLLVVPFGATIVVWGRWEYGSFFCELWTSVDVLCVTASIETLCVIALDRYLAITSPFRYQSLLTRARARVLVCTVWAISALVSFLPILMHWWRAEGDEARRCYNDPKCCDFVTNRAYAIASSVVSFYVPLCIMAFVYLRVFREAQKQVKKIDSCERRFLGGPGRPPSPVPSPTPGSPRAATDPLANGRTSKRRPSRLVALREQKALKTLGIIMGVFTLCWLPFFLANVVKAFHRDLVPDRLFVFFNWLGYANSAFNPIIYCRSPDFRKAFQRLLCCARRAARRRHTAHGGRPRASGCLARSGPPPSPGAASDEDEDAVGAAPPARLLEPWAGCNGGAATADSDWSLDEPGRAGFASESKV

[3] = target: T2, Adrenergic receptor alpha-1 (Rattus norvegicus, UniProt P15823+P23944+P43140); assay: Binding affinity towards Alpha-1 adrenergic receptor of rat brain
T2 sequence (P15823 whole entry): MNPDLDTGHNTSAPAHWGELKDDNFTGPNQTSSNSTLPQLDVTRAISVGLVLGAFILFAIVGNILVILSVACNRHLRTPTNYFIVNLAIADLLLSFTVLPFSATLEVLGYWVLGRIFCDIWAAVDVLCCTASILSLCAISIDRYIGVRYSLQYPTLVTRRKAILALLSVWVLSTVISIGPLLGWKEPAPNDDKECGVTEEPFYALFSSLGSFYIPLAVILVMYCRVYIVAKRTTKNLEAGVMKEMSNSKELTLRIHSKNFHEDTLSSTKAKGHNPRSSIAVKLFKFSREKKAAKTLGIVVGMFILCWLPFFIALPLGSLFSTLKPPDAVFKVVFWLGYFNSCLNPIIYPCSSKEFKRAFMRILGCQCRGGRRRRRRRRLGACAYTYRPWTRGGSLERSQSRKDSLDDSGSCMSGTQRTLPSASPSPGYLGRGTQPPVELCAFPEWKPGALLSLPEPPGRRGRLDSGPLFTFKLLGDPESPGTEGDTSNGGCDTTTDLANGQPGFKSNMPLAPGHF
T2 sequence (P23944 whole entry): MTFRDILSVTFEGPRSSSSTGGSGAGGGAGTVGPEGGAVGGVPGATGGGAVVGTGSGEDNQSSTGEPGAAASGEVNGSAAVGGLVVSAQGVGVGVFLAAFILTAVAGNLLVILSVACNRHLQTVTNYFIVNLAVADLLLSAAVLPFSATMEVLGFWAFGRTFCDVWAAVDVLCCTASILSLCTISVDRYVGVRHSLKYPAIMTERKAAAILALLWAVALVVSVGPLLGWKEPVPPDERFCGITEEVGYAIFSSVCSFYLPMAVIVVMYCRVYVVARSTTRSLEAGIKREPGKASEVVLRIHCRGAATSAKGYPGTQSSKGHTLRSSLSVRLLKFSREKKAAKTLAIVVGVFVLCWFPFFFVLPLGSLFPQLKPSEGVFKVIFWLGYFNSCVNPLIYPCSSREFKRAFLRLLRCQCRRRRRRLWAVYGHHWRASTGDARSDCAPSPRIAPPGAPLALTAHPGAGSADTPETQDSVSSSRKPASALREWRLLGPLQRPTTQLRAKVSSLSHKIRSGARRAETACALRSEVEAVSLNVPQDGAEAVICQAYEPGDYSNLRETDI
T2 sequence (P43140 whole entry): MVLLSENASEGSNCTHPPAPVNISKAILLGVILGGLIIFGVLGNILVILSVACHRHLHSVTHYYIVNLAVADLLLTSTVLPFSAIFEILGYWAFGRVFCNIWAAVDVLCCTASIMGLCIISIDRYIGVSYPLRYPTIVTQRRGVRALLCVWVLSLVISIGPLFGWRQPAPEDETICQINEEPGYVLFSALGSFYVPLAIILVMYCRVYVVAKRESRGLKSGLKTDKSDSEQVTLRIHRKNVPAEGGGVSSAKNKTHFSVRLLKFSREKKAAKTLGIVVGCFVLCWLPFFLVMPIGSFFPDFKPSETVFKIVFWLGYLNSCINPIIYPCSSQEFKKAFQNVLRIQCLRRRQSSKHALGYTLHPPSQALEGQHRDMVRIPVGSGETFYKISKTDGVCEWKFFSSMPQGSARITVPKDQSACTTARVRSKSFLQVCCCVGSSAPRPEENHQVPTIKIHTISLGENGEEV

[4] = target: Beta-2 adrenergic receptor (Bos taurus, UniProt Q28044); assay: Compound was evaluated for beta adrenergic binding affinity towards Beta-2 adrenergic receptor of bovine lung
Sequence of Beta-2 adrenergic receptor (Q28044 whole entry): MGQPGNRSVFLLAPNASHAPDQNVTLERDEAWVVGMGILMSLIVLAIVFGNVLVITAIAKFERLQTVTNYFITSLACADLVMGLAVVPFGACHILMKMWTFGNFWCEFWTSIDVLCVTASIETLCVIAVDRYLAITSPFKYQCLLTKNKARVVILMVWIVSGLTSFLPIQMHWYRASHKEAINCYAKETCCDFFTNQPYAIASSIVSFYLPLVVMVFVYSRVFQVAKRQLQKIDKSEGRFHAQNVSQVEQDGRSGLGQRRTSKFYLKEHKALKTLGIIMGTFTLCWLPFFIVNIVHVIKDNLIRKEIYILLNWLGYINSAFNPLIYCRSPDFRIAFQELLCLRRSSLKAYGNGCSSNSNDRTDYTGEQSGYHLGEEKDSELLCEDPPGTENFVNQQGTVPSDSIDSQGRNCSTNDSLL

[5] = target: Beta-1 adrenergic receptor (Cavia porcellus) (UniProt B0FL73)
Description: Compound was evaluated for beta adrenoceptor agonistic activity towards Beta-1 adrenergic receptor of isolated guinea pig atria (exp 2)

[6] = target: Beta-2 adrenergic receptor (Cavia porcellus) (UniProt Q8K4Z4)
Sequence of Beta-2 adrenergic receptor (Cavia porcellus) (Q8K4Z4 whole entry, looked up): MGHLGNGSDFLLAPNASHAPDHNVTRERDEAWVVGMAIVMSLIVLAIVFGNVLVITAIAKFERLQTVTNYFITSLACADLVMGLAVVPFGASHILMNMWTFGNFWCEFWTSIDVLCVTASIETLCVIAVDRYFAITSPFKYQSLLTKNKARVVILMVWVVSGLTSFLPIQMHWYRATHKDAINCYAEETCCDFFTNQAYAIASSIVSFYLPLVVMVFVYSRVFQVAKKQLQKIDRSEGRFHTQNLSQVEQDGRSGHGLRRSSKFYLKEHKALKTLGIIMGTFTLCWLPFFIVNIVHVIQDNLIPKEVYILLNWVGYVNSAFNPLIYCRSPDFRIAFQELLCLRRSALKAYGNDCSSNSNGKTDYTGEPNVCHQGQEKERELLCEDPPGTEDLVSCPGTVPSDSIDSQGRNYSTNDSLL
Description: Compound was evaluated for beta adrenoceptor agonistic activity towards Beta-2 adrenergic receptor of isolated guinea pig tracheal strip (exp 1)

[7] = Compound was evaluated for Alpha-1 adrenergic receptor agonistic activity towards alpha 1 receptor of isolated rabbit aortic strips; assay type: functional, Oryctolagus cuniculus
[8] = target: Beta-2 adrenergic receptor (Cavia porcellus) (UniProt Q8K4Z4); remark: listed apart in the source
Description: Compound was evaluated for beta adrenoceptor agonistic activity towards Beta-2 adrenergic receptor of isolated guinea pig tracheal strip (exp 2)

[9] = target: T3, Adrenergic receptor alpha-2 (Rattus norvegicus, UniProt P22086+P19328+P22909); assay: Binding affinity towards alpha-2 adrenergic receptor of rat brain
T3 sequence (P22086 whole entry): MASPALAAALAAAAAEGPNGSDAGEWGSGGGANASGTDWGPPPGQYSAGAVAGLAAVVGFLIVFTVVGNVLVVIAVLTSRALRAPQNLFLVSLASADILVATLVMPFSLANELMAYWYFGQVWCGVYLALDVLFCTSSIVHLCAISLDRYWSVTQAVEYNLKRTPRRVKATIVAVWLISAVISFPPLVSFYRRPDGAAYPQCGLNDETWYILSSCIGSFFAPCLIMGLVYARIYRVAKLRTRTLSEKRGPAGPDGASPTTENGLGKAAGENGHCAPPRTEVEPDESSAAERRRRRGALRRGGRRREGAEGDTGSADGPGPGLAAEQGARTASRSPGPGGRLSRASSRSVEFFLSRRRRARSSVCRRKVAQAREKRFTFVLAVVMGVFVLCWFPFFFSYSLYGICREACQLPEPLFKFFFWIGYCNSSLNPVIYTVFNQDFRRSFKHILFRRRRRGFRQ
T3 sequence (P19328 whole entry): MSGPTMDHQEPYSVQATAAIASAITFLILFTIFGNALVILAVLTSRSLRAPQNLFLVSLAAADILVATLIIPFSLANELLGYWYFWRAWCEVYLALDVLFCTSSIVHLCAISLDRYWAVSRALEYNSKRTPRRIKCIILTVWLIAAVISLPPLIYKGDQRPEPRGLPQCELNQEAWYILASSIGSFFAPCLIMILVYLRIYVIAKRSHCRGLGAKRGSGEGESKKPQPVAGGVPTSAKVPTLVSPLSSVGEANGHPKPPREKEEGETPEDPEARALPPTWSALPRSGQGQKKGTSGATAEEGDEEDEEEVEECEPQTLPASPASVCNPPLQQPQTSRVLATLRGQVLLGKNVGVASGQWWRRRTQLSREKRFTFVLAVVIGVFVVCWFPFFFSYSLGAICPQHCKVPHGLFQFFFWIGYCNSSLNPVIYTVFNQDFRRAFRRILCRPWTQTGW
T3 sequence (P22909 whole entry): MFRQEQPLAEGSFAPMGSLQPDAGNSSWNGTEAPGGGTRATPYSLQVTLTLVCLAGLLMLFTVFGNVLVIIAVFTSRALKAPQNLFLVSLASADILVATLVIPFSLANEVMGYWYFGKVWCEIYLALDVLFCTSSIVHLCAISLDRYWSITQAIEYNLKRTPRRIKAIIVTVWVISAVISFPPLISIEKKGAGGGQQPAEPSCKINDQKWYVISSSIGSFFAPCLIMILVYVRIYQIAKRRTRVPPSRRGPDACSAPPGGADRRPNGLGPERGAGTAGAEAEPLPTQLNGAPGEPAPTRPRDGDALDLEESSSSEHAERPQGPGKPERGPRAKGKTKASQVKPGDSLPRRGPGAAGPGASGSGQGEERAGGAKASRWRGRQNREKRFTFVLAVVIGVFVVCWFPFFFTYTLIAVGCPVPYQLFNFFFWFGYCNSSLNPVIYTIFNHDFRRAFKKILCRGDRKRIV

[10] = target: T1, Adrenergic receptor alpha-2 (Homo sapiens); assay: Intrinsic activity was expressed as the ratio between maximal response elicited by compound and that elicited by full agonist NE towards alpha-2 adrenergic receptor of isolated guinea pig ileum; assay type: functional, tissue-based; details: Cavia porcellus
[11] = target: Beta-1 adrenergic receptor (Cavia porcellus) (UniProt B0FL73); assay: Compound was evaluated for beta adrenoceptor agonistic activity towards Beta-1 adrenergic receptor of isolated guinea pig atria (exp 1); assay type: functional
[12] = target: Beta-1 adrenergic receptor (Rattus norvegicus, UniProt P18090)
Sequence of Beta-1 adrenergic receptor (P18090 whole entry): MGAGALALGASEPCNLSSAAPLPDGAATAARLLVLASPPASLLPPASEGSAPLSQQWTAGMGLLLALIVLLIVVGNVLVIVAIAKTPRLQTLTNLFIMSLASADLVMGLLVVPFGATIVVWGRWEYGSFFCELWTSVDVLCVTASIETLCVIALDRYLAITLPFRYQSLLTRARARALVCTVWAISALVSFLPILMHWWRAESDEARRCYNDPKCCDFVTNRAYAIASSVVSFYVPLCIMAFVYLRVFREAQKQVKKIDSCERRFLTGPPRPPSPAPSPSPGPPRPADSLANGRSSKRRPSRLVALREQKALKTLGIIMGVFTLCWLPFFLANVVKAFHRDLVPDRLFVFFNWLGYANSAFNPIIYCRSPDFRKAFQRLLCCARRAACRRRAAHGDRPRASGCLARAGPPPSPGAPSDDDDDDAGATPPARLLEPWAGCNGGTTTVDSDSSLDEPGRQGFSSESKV
Description: Compound was evaluated for beta adrenergic binding affinity towards Beta-1 adrenergic receptor of rat brain

SMILES: CC(C)N[C@@H]1CCc2c(ccc(O)c2O)[C@H]1O
- pD2 [1]: 5.6
- Intrinsic activity [2]: 1
- Ki [3]: > 100000 nM
- Ki [4]: 62 nM
- pD2 [5]: 7.56
- pD2 [6]: 8.06
- pD2 [7]: <3.5
- pD2 [8]: 8.41
- Ki [9]: 5800 nM
- Intrinsic activity [10]: 0.72
- pD2 [11]: 6.72
- Ki [12]: 760 nM

— ChEMBL document CHEMBL1125402, “Conformational effects on the activity of drugs. 13. A revision of previously proposed models for the activation of alpha- and beta-adrenergic receptors” (J Med Chem, 1992)
